Results as given in US6602905B1, “N-acyl homoserine lactones for the treatment of cardiac tachyarrhythmias, ischaemic heart disease or congestive heart failure” (The University of Nottingham, priority 1999, dated 2003).

Experiments:
[1] = tested on: Male rats (Long Evans); experiment: Cardiovascular variables in conscious rats after cardiac autonomic blockade with atenolol + atropine; type: in vivo, rat; settings: 10 mg per kg i.v. after earlier administration of atenolol and atropine
Experimental: (§1) Male rats (Long Evans) of body mass in the range of from 350 to 450 g were used in the experiments.
(§2) The rats were instrumented with probes to monitor blood flow in renal, mesenteric and hindquarters vascular beds and with catheters to measure blood pressure and heart rate and to administer substances intravenously.
(§3) Measurements of the cardiovascular variables were made in the test rats which were conscious and able to move freely during the duration of the test procedure (10 minutes). The raw data were sampled (every 2 ms), averages were calculated (per cardiac cycle) and the data was stored to diskette (every 5 s). The stored data was analysed off line.
The following substances were administered intravenously to the test rats.
1) As in 2) in Experiment I above (∘)
2) Atenolol +atropine then as in 2) in Experiment I above (●).

[2] = tested on: Male rats (Long Evans); experiment: Cardiovascular variables in conscious, freely moving instrumented rats after intravenous injection; type: in vivo, rat; settings: vs vehicle; for effect on the heart rate / effect on the mean arterial blood pressure: 10 mg per kg body weight i.v. in acetonitrile/dextrose
Experimental: as §1, §2, §3
The following substances were administered by intravenous injection to the test rats.
1) vehicle only (100 μl of 50:50 acetonitrile:dextrose)
2) 10 mg per kg body weight of N-(3-oxododecanoyl)homoserine lactone (OdDHL; Formula I; n=2, Y=X=O, R=3-oxododecanoyl). The OdDHL was dissolved in acetonitrile/dextrose (50 μl:50 μl) 100 μl.
3) vehicle only (100 μl of 50:50 acetonitrile:dextrose)
4) 10 mg per kg body weight of N-(3-oxoundecanoyl)homoserine lactone (OuDHL; Formula I; n=2, Y=X=O, R=3-oxoundecanoyl).
The OuDHL was dissolved in acetonitrile/dextrose (50 μl:50 μl) 100 μl.

Structure (SMILES) | bradycardia (heart rate) after cardiac autonomic blockade [1] | effect on the heart rate [2] | effect on the mean arterial blood pressure [2] | blood flow, particularly in the mesenteric and hindquarters ([2]; 10 mg per kg body weight i.v.)
CCCCCCCCCC(=O)CC(=O)N[C@H]1CCOC1=O [OdDHL, N-(3-oxododecanoyl)homoserine lactone] | not observed | profound bradycardia | substantially no change | reduced
CCCCCCCCC(=O)CC(=O)NC1CCOC1=O (stereo not drawn) [OuDHL, N-(3-oxoundecanoyl)homoserine lactone] | – | marked bradycardia | substantially no change | –
